In ChEMBL document CHEMBL1141896, “Synthesis and structure-activity relationships of piperidinylpyrrolopyridine derivatives as potent and selective H1 antagonists” (Bioorg Med Chem Lett, 2005):

Key:
[1] = target: Serotonin 2 (5-HT2) receptor (Homo sapiens, UniProt P41595+P28223+P28335); assay: Inhibitory concentration against 5-hydroxytryptamine 2 receptor; format: protein assay
[2] = target: T1, Adrenergic receptor alpha-1 (Rattus norvegicus, UniProt P15823+P23944+P43140); assay: Binding affinity towards Alpha-1 adrenergic receptor in rat brain using [3H]prazosin as radioligand; format: tissue-based
T1 sequence (P15823 whole entry): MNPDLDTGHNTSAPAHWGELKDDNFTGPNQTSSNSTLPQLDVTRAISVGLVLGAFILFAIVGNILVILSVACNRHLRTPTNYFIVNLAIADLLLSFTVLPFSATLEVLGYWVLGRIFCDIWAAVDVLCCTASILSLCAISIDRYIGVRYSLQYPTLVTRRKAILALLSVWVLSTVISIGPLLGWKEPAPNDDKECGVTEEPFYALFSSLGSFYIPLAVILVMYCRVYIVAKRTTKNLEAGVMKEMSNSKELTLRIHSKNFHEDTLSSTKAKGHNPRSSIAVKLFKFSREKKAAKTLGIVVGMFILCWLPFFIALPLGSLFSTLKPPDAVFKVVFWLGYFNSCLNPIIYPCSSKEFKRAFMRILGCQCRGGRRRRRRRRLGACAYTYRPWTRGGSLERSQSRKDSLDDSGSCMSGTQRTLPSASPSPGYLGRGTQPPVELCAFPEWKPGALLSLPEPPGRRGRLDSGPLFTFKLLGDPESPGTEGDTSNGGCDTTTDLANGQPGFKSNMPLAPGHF
T1 sequence (P23944 whole entry): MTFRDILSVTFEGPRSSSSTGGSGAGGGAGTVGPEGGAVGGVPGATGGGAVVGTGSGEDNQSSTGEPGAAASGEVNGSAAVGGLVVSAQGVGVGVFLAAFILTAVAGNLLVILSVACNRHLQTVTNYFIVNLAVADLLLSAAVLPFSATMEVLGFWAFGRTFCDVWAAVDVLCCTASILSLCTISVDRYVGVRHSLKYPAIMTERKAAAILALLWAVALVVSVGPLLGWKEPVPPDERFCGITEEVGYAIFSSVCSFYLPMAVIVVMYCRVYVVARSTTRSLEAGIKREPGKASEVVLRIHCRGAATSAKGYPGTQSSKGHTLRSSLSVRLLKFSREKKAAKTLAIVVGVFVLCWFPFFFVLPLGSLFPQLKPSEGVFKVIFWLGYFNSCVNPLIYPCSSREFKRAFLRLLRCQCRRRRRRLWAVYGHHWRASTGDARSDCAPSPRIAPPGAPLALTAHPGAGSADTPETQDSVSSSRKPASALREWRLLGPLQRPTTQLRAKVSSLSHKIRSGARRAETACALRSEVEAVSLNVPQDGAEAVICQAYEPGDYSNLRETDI
T1 sequence (P43140 whole entry): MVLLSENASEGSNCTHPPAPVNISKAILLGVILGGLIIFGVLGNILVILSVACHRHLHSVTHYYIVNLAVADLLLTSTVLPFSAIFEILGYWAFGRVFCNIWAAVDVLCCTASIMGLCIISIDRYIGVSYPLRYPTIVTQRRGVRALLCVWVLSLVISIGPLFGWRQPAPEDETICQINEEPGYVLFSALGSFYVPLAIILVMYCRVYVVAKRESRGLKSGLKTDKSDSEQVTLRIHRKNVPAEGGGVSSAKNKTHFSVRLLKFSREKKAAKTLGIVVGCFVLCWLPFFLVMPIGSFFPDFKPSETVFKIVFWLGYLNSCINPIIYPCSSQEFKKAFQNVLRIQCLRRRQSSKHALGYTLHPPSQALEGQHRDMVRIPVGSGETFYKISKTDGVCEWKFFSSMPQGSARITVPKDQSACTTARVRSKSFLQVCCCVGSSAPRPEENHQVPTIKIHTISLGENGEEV

Histamine H1 receptor = Histamine H1 receptor (Cavia porcellus, UniProt P31389); assay: Inhibitory concentration against histamine-H1 receptor
Rattus norvegicus [3] = species on record: Rattus norvegicus; assay: Effective dose against Histamine-induced skin vascular permeability model in rat after 4 hr (n = 5); format: functional
Rattus norvegicus [4] = species on record: Rattus norvegicus; assay: Effective dose against Histamine-induced skin vascular permeability model in rat after 8 hr (n = 5); format: functional
[5] = target: Histamine H1 receptor (Mus musculus) (UniProt P70174); assay: Ex vivo effective binding dose against histamine-H1 receptor (n = 3)
Rattus norvegicus [6] = assay: Inhibition of Histamine-induced skin vascular permeability model in rat after 4 hr at 1 mg/Kg (n = 5); format: functional

Sequence of Histamine H1 receptor (Mus musculus) (P70174 whole entry, looked up): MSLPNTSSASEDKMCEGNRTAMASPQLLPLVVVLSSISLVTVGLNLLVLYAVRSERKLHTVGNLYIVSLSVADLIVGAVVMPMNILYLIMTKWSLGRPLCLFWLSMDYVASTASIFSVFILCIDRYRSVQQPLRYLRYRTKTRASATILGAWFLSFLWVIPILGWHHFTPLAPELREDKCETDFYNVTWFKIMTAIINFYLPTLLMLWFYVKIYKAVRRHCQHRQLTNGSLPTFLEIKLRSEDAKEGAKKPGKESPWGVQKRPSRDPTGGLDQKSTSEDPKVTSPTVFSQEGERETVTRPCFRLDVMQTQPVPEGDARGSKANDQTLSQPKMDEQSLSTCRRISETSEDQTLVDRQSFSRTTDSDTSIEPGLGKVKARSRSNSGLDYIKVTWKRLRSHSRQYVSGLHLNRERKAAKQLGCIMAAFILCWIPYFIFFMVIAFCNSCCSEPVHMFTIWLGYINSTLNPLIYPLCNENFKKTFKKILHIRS
Sequence of Histamine H1 receptor (P31389 whole entry): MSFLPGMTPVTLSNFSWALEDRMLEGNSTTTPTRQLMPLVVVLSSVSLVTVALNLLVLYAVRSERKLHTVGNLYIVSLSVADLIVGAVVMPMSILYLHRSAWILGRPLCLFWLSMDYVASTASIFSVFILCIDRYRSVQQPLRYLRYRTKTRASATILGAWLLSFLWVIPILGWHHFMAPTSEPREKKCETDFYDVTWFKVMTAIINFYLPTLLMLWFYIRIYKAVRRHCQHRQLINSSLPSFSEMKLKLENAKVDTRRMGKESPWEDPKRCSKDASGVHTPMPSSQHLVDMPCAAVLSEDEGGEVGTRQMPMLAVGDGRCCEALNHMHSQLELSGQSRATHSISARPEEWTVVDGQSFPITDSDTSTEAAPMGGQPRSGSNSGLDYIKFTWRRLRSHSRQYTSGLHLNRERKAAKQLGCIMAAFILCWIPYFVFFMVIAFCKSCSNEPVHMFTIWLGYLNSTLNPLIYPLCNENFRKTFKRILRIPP

Compound | IC50 [1] [nM] | IC50 [2] [nM] | IC50 (Histamine H1 receptor) [nM] | ED50 (Rattus norvegicus [3]) [mg/kg] | ED50 (Rattus norvegicus [4]) [mg/kg] | ED50 [5] [mg/kg] | inhibition in vivo at 1 mg/kg (Rattus norvegicus [6]) [%]
COc1ccc(CN2CCC(c3cn(Cc4ccoc4)c4ccccc34)CC2)cc1C(=O)O | 10000 | > 10000 | 205 | 0.2 | 0.2 | 15 | 
CCOCCn1cc(C2CCN(Cc3cccc(C(=O)O)c3)CC2)c2ccccc21 | 4950 | > 10000 | 403 | 0.07 | 0.45 | 16 | 
CCCCn1cc(C2CCN(Cc3ccc(OC)c(C(=O)O)c3)CC2)c2ccccc21 | > 10000 | > 10000 | 475 | 0.08 | 0.13 | 69 | 
CCCCn1cc(C2CCN(Cc3cccc(C(=O)O)c3)CC2)c2ccccc21 | > 10000 | > 10000 | 275 | 1 |  |  | 
O=C(O)c1cccc(CN2CCC(c3cn(Cc4ccoc4)c4ccccc34)CC2)c1 | 10000 | > 10000 | 560 | 1 |  |  | 
CCOCCn1cc(C2CCN(CCOc3ccccc3C=O)CC2)c2ccccc21 | 3272 | 10000 | 86 | 0.1 | 0.22 | 8 | 
COc1ccc(CN2CCC(c3cn(Cc4ccc(Cl)s4)c4ccccc34)CC2)cc1C(=O)O | 10000 | > 10000 | 365 | 0.5 | 0.7 | 57 | 
CCOCCn1cc(C2CCN(Cc3ccc(OC)c(C(=O)O)c3)CC2)c2ccccc21 | 10000 | > 10000 | 690 | 0.05 |  | 5.4 | 
O=C(O)c1cccc(CN2CCC(c3cn(Cc4ccc(Cl)s4)c4ccccc34)CC2)c1 | > 10000 | > 10000 | 330 |  |  |  | 7
CCOCCn1cc(C2CCN(CCOc3ccccc3C(=O)O)CC2)c2ccccc21 | > 10000 | > 10000 | 190 | 0.08 | 0.02 | 34 | 
